Experimental data taken from US9617517B2, “Small chemical compound which promotes induction of differentiation of stem cells into insulin-producing cells and method for inducing differentiation of stem cells into insulin-producing cells using said small chemical compound” (NATIONAL UNIVERSITY CORPORATION KUMAMOTO UNIVERSITY, priority 2011, dated 2017).

Assays:
[1] = system: mouse ES cells (Pdx1/GFP); assay: Differentiation of mouse ES cells into insulin positive cells on nano fiber plate, immunostaining and quantitative image analysis; assay type: cell-based
Description: Two ES cell lines, one expressing green fluorescent protein (GFP) under the control of insulin 1 promoter, designed ING (Higuchi Y., Shiraki N., Yamane K, Qin Z., Mochitate K., Araki K., Senokuchi K., Yamagata K., Hara M., Kume K., and Kume S., Synthesized basement membranes direct the differentiation of mouse embryonic stem cells into pancreatic lineages. J. Cell Science, 123, 2733-2742, 2010), and the other one expressing GFP under the control of Pdx1 promoter, designated SK7 (Shiraki N, Yoshida T, Araki K, et al. Guided differentiation of embryonic stem cells into Pdx1-expressing regional-specific definitive endoderm. Stem Cells. 2008; 26:874-885), were used. Both cell lines were maintained on mouse embryonic fibroblast (MEF) feeders in Glasgow minimum essential medium (Invitrogen) containing 1000 units/ml leukemia inhibitory factor (LIF; Chemicon), 15% Knocked-out Serum Replacement (KSR; Gibco), 1% fetal bovine serum (FBS; Hyclone), 100 μM nonessential amino acids (NEAA; Invitrogen), 2 mM L-glutamine (L-Gln; Invitrogen), 1 mM sodium pyruvate (Invitrogen), 50 units/ml penicillin and 50 μg/ml streptomycin (PS; Invitrogen) and 100 μM β-mercaptoethanol (β-ME; Sigma), as ES maintenance medium.
For the differentiation studies, ES cells were plated at 5,000 cells per well in Corning 96 well plate with Ultra-Web Synthetic Polyamine Surface (#3873XX1, Corning Coster, Cambridge, Miss.), and cultured. The cells were cultured in Dulbecco's Modified Eagle Medium (DMEM: Invitrogen, Glasgow, UK) containing 4500 mg/L glucose, supplemented with NEAA, L-Gln, PS, β-ME, 10 μg/ml insulin (Sigma-Aldrich), 5.5 μg/ml transferrin (Sigma-Aldrich), 6.7 pg/ml selenium (Sigma-Aldrich), and 0.25% Albmax (Invitrogen), 10 ng/mL recombinant human activin-A (R&D Systems, Minneapolis, Minn.), 5 ng/mL; recombinant human bFGF for 7 days (d1-d7) (I of FIG. 1). And then, the medium was changed to RPMI 1640 medium (Invitrogen) containing 2000 mg/L glucose (Sigma, St Louis, Mo.), 1 μM Retinoic acid (Sigma-Aldrich), 50 ng/ml Human Recombinant Fibroblast Growth Factor-10 (Peprotech, Rocky Hill, N.J.), B27 SUPPLEMENT (Invitrogen) and 0.25 μM 3-Keto-N-(aminoethyl-aminocaproyl-dihydrocinnamoyl) cyclopamine Shh Signaling Antagonist II (Calbiochem, San Diego, Calif.) on d7 to d11 (II of FIG. 1). Finally, the medium was switched to DMEM containing 1000 mg/L glucose supplemented with NEAA, L-Gln, PS, β-ME, 10 μg/ml insulin (Sigma-Aldrich), 5.5 μg/ml transferrin (Sigma-Aldrich), 6.7 pg/ml selenium (Sigma-Aldrich), 0.25% Albmax (Invitrogen) and 10 mM nicotinamide (Sigma-Aldrich) on d11 to d17 (III of FIG. 1). Media were replaced every 2 days with fresh medium and growth factors until d17.
All tested small chemical compounds were solved in dimethyl sulfoxide (DMSO) at given concentration. Compounds were added on d11, d13 and d15 in a medium. Final concentration of DMSO was adjusted at 1.0% in all experiments for compounds.
After 17 days cell culture, cultured ES cells were fixed in 4% paraformaldehyde in PBS for 30 min at room temperature, and rinsed several times with PBS. Then, cells were incubated in the added diluted primary antibody in 20% Blocking One (Nacalai tesque, Tokyo, Japan) in PEST (0.1% Tween-20 in PBS) in a humidified chamber for overnight at 4° C. After washing the cells in PBST, cells were incubated with the secondary antibody in 20% Blocking One for 2 hr at room temperature in dark. After washing off the secondary antibody in PBST, cells were counterstained with […] (DAPI) (Roche Diagnostics). The following antibodies were used as First antibodies: Rabbit anti-GFP (MBL International Corp., Woburn, Mass.), Mouse anti-Insulin (Sigma). The following antibodies were used as Secondary antibodies: Alexa 568-conjugated, Alexa 488-conjugated antibodies (Invitrogen) Cells were counterstained with DAPI (Roche Diagnotics, Basel, Switzerland).

VMAT2KD ES cells = assay: Differentiation into insulin-expressing cells in vesicular monoamine transporter knock-down cell line; assay type: cell-based, mouse; conditions: VMAT2KD cells with dBu-cAMP 0.63 μM; control = normal cells without cAMP analog (FIG. 11A)
Method: In the Vmat2-knockdown and Drd2-knockdown assays, Expression Arrest non-silencing control shRNA (Open Biosystems, #RHS4080), Vmat2 hRNA (Open Biosystems, #RMM3981-97058457 and #RMM3981-97058458) or Drd2 hRNA (Open Biosystems, #RMM3981-9594258) lentiviral vectors were used. For virus preparation, HEK293-FT cells (Invitrogen) were seeded on a plate medium the day before transfection. After overnight culture, the cells were transfected with lentiviral vectors and ViraPower™ Lentiviral Packaging Mix (Invitrogen) using FuGENE6 Transfection Reagent (Roche) according to the manufacturer's protocol. Cells were incubated in the ES maintenance medium for 24 hours, and viral supernatants were collected. Then, SK7 cells were infected with the viral supernatants. After incubation for 24 hours, the virus-containing medium was replaced with fresh ES maintenance medium. Further 24 hours later, the infected cells were selected using […] puromycin. The surviving cells were cloned as a knockdown-cell lines.
Drd2 is known as a G protein-coupled receptor activating Gαi/o protein and having an inhibiting activity against adenyl cyclase. To identify the intracellular signal transduction phenomenon by Drd2, the effect of cAMP was examined. […] This enhancement was stronger than that obtained when dBu-cAMP was added to VMAT2KD ES cells (FIG. 10). […]

differentiated ES cells = assay: Secreted insulin and cellular insulin content by mouse c-peptide ELISA; assay type: cell-based

Compound: CCCC(=O)Nc1ncnc2c1ncn2[C@@H]1O[C@@H]2COP(=O)(O)O[C@H]2[C@H]1OC(=O)CCC [Dibutyryl- cAMP, dibutyrate-cAMP]
- increase of number of insulin positive cells ([1]; 0.6 μM dBu-cAMP (FIG. 11B)): about 7 fold
- increase of number of insulin-expressing cells ([1]; NS cells, 0.63 μM dBu-cAMP d11-d17 (FIG. 11A)): 2.9 fold
- effect on differentiation into insulin-expressing cells ([1]; compound added d11-d17, insulin staining d17 (FIG. 4, 5, 7, 8, 10)): enhanced the differentiation into insulin-expressing cells
- Relative value of Ins positive cells ([1]; number of cells with no compound = 1, concentration of each compound (μM), added d11, d13, d15, analysed d17): 4.9
- increase of number of insulin-expressing cells (VMAT2KD ES cells): 31.4 fold
- sugar-responsive C-peptide secretion (differentiated ES cells; dBu-cAMP 0.6 μM, no TBZ, addition days 11-17, 11-15 or 13-17, day 17 (FIG. 17)): increased in all conditions
- C-peptide secretion (differentiated ES cells; glucose concentration 27.5 mM, dBu-cAMP 0.6 μM day 11 to 17 (FIG. 18E)): C-peptide secretion was observed
